Experimental data taken from patent US8058306B2, “Phenyl pyrrole aminoguanidine derivatives” (Action Pharma A/S, priority 2006, dated 2011).
Several values for one entry are separate records, joined by “and”; a condition that tells them apart may be missing. Equal entries are not always repeated. Entries after “also recorded” stand apart in the source; their conditions may differ. Where two headings read alike, the source gives them in different places.

Assay: Plasma kinetics in rat following intravenous and oral administration
Format: in vivo, Sprague Dawley rats
Details: male rats
Procedure: This study determined the intravenous pharmacokinetics and oral bioavailability of compound 1 of the invention (see FIG. 1A, structure no. 1), compound 2 of the invention (see FIG. 1D, structure no. 19) and compound 3 of the invention (see FIG. 1I, structure no. 53) following administration to Sprague Dawley rats at a dose level of 10 mg/kg.
Six groups of 3 male rats received either a single intravenous or single oral administration of compound 1, 2 or 3 of the invention at a dose level of 10 mg/kg. Blood samples were obtained at various times after dosing. Plasma samples were analysed for unchanged test item using a suitable LC-MS/MS method. Pharmacokinetic parameters were estimated from individual plasma concentrations.
Eighteen male rats each received either a single intravenous or a single oral administration of either compound 1, 2 or 3 at a dose level of 10 mg/kg. The formulation was orally administered to each animal by gastric gavage and intravenously administered to each animal via a tail vein. The dose was administered at a dose volume of 5 mL/kg. The formulations were administered to each animal according to the details in the following table:
Blood samples (ca 0.3 mL) were removed from the femoral vein of each animal into tubes containing lithium heparin as anticoagulant.
Blood samples were collected from 3 rats at the following times after dose administration: • 3, 6, 15, 45 min and 1.5, 2.5, 4, 6, 8, 24 h post dose. Oral Administration
Blood samples were collected from 3 rats at the following times after dose administration: • 5, 15, 45 min and 1.5, 2.5, 4, 6, 8, 24 h post dose. Processing of Blood Samples
Pharmacokinetic parameters of compound 1, 2 and 3 were derived by non-compartmental analysis using WinNonLin Pro version 5.0.1 (Pharsight 2005). The following parameters were derived, where appropriate, from the individual plasma concentration versus time profiles:
• F % The absolute oral bioavailability calculated as [AUC0-t (oral)*Dose(iv)/AUC0-t (iv)*Dose (oral)]*100 based on mean values derived after oral and intravenous administration Consideration was given to the estimation of λz and corresponding t1/2 values. Three or more points are required within the terminal phase for λz and t1/2 to be estimated. The following additional variables were tabulated to aid identification of potentially unreliable estimates of t1/2 and AUC:
Pharmacokinetic parameters were reported as geometric mean except Tmax which was reported as the median. Geometric coefficient of variation was calculated as: […]
Actual sampling times were used for all calculations of pharmacokinetic parameters. Plasma concentrations that were below the limit of quantification were taken as zero for the pharmacokinetic analysis.

[1] = oral 10 mg/kg, individual animals, acetate, 10 mg/kg

With `N=C(N)NN=CC=Cc1cccn1-c1ccc(Cl)cc1` [Compound 1, [1-(4-chlorophenyl)-1H-pyrrol-2-yl-allylideneamino]guanidinium acetate] the Cmax (male, Sprague Dawley, rat, plasma, po, 10 mg/kg, oral 10 mg/kg, Arithmetic Mean, read-out: Cmax) was 104 ng/mL, the Tmax (male, Sprague Dawley, rat, plasma, po, 10 mg/kg, oral 10 mg/kg, Arithmetic Mean, read-out: tmax) was 6.65 h and the AUC(0-t) (male, Sprague Dawley, rat, plasma, po, 10 mg/kg, oral 10 mg/kg, Geometric mean, read-out: AUC0-t) was 1340 ng·h/mL. For the same molecule, the Cmax (male, Sprague Dawley, rat, plasma, po, 10 mg/kg, oral 10 mg/kg, Geometric mean, read-out: Cmax) was 104 ng/mL, the Tmax (male, Sprague Dawley, rat, plasma, po, 10 mg/kg, oral 10 mg/kg, Geometric mean, read-out: tmax) was 6.34 h and the AUC(0-t) (male, Sprague Dawley, rat, plasma, po, 10 mg/kg, oral 10 mg/kg, Median, read-out: AUC0-t) was 1460 ng·h/mL. The Cmax (male, Sprague Dawley, rat, plasma, po, 10 mg/kg, oral 10 mg/kg, Median, read-out: Cmax) was 104 ng/mL, the Tmax (male, Sprague Dawley, rat, plasma, po, 10 mg/kg, oral 10 mg/kg, Median, read-out: tmax) was 7.97 h and the AUC(0-inf) (male, Sprague Dawley, rat, plasma, po, 10 mg/kg, oral 10 mg/kg, individual animals) was 1130 ng·h/mL. For the same molecule, the AUC(0-t) (male, Sprague Dawley, rat, plasma, po, 10 mg/kg, oral 10 mg/kg, individual animals, read-out: AUC0-t) was 1500 ng·h/mL, the Cmax (male, Sprague Dawley, rat, plasma, po, 10 mg/kg, oral 10 mg/kg, individual animals, read-out: Cmax) was 106 ng/mL and the MRT (male, Sprague Dawley, rat, plasma, po, 10 mg/kg, oral 10 mg/kg, individual animals, read-out: MRT) was 7.86 h. It also gave a half-life (male, Sprague Dawley, rat, plasma, po, 10 mg/kg, oral 10 mg/kg, individual animals, read-out: t1/2 (converted)) of 4.61 h, a Tmax (male, Sprague Dawley, rat, plasma, po, 10 mg/kg, oral 10 mg/kg, individual animals, read-out: tmax) of 7.97 h and a Tmax (male, Sprague Dawley, rat, plasma, po, 10 mg/kg, oral 10 mg/kg, from mean plasma concentrations, read-out: time post dose at which maximum plasma concentration was observed (tmax)) of 8 h. It also gave a half-life (male, Sprague Dawley, rat, plasma, po, 10 mg/kg, oral 10 mg/kg, read-out: apparent terminal half-life (converted)) of 4.61 h, a concentration at 0.08 h (male, Sprague Dawley, rat, plasma, po, 10 mg/kg, single oral 10 mg/kg, 0.08 h, individual animals, LLOQ 2.50 (Table X: * 5.0, ** 25, diluted samples), read-out: Sample Concentration in plasma) of 2.66 ng/mL and a concentration at 0.08 h (male, Sprague Dawley, rat, plasma, po, 10 mg/kg, single oral 10 mg/kg, 0.08 h, mean, read-out: Mean Concentration in plasma) of 2.66 ng/mL. For the same molecule, the concentration at 0.25 h (male, Sprague Dawley, rat, plasma, po, 10 mg/kg, single oral 10 mg/kg, 0.25 h, individual animals, read-out: Sample Concentration in plasma) was 6.53 ng/mL, the concentration at 0.25 h (male, Sprague Dawley, rat, plasma, po, 10 mg/kg, single oral 10 mg/kg, 0.25 h, mean of 3, read-out: Mean Concentration in plasma) was 7.29 ng/mL and the concentration at 0.75 h (male, Sprague Dawley, rat, plasma, po, 10 mg/kg, single oral 10 mg/kg, 0.75 h, mean of 3, read-out: Mean Concentration in plasma) was 17.3 ng/mL. For the same molecule, the concentration at 1.5 h (male, Sprague Dawley, rat, plasma, po, 10 mg/kg, single oral 10 mg/kg, 1.5 h, mean of 3, read-out: Mean Concentration in plasma) was 39.1 ng/mL, the concentration at 2.5 h (male, Sprague Dawley, rat, plasma, po, 10 mg/kg, single oral 10 mg/kg, 2.5 h, individual animals, read-out: Sample Concentration in plasma) was 65.9 ng/mL and the concentration at 2.5 h (male, Sprague Dawley, rat, plasma, po, 10 mg/kg, single oral 10 mg/kg, 2.5 h, mean of 3, read-out: Mean Concentration in plasma) was 60.1 ng/mL. It also gave a concentration at 4 h (male, Sprague Dawley, rat, plasma, po, 10 mg/kg, single oral 10 mg/kg, 4 h, individual animals, read-out: Sample Concentration in plasma) of 102 ng/mL, a concentration at 4 h (male, Sprague Dawley, rat, plasma, po, 10 mg/kg, single oral 10 mg/kg, 4 h, mean of 3, read-out: Mean Concentration in plasma) of 90.3 ng/mL and a concentration at 6 h (male, Sprague Dawley, rat, plasma, po, 10 mg/kg, single oral 10 mg/kg, 6 h, individual animals, read-out: Sample Concentration in plasma) of 72.3 ng/mL. For the same molecule, the concentration at 6 h (male, Sprague Dawley, rat, plasma, po, 10 mg/kg, single oral 10 mg/kg, 6 h, mean of 3, read-out: Mean Concentration in plasma) was 86.5 ng/mL, the concentration at 8 h (male, Sprague Dawley, rat, plasma, po, 10 mg/kg, single oral 10 mg/kg, 8 h, individual animals, LLOQ 2.50, read-out: Sample Concentration in plasma) was 68.8 ng/mL and the concentration at 8 h (male, Sprague Dawley, rat, plasma, po, 10 mg/kg, single oral 10 mg/kg, 8 h, mean, LLOQ 2.50, read-out: Mean Concentration in plasma) was 92.9 ng/mL. For the same molecule, the concentration at 24 h (male, Sprague Dawley, rat, plasma, po, 10 mg/kg, single oral 10 mg/kg, 24 h, individual animals, LLOQ 2.50, read-out: Sample Concentration in plasma) was 5.35 ng/mL, the concentration at 24 h (male, Sprague Dawley, rat, plasma, po, 10 mg/kg, single oral 10 mg/kg, 24 h, mean, LLOQ 2.50, read-out: Mean Concentration in plasma) was 7.68 ng/mL and the “mean absorption time (MAT)” value (oral 10 mg/kg) was 2.10 h. The MAT (oral 10 mg/kg, individual animals) was 2.10 h, the AUC(0-t) [1] was 1094 ng·h/mL and 1460 ng·h/mL and the Cmax [1] was 102 ng/mL. For the same molecule, the Tmax [1] was 4.00 h and 7.98 h, the “maximum observed plasma concentration, mean value” (oral 10 mg/kg, at tmax) was 92.9 ng/mL and the “Sample Concentration in plasma” value (single intravenous 10 mg/kg, 0.05 h, individual animals, acetate, 10 mg/kg) was 1650 ng/mL and 3630 ng/mL and 1460 ng/mL. For the same molecule, the “Sample Concentration in plasma” value (single intravenous 10 mg/kg, 0.1 h, individual animals, acetate, 10 mg/kg) was 1220 ng/mL and 1200 ng/mL, the “Sample Concentration in plasma” value (single intravenous 10 mg/kg, 0.25 h, individual animals, acetate, 10 mg/kg) was 830 ng/mL and 696 ng/mL and the “Sample Concentration in plasma” value (single intravenous 10 mg/kg, 0.75 h, individual animals, acetate, 10 mg/kg) was 332 ng/mL and 402 ng/mL. The “Sample Concentration in plasma” value (single intravenous 10 mg/kg, 1.5 h, individual animals, acetate, 10 mg/kg) was 236 ng/mL and 340 ng/mL, the “Sample Concentration in plasma” value (single intravenous 10 mg/kg, 2.5 h, individual animals, acetate, 10 mg/kg) was 202 ng/mL and 259 ng/mL and the “Sample Concentration in plasma” value (single intravenous 10 mg/kg, 4 h, individual animals, acetate, 10 mg/kg) was 208 ng/mL and 238 ng/mL. The “Sample Concentration in plasma” value (single intravenous 10 mg/kg, 6 h, individual animals, acetate, 10 mg/kg) was 172 ng/mL and 168 ng/mL, the “Sample Concentration in plasma” value (single intravenous 10 mg/kg, 8 h, individual animals, LLOQ 2.50, acetate, 10 mg/kg) was 151 ng/mL and 135 ng/mL and 5.04 ng/mL and the “Sample Concentration in plasma” value (single intravenous 10 mg/kg, 24 h, individual animals, LLOQ 2.50, acetate, 10 mg/kg) was 13.2 ng/mL and 16.8 ng/mL and 30.7 ng/mL. For the same molecule, the adverse effects (single intravenous or oral administration, 10 mg/kg, acetate) was “No adverse effects; also recorded: No adverse affects”, the “Sample Concentration in plasma” value (single oral 10 mg/kg, 0.08 h, individual animals, LLOQ 2.50 (Table X: * 5.0, ** 25, diluted samples), acetate, 10 mg/kg) was “*<LLOQ; also recorded: **<LLOQ” and the “Sample Concentration in plasma” value (single oral 10 mg/kg, 0.25 h, individual animals, acetate, 10 mg/kg) was 5.92 ng/mL and 9.43 ng/mL. For the same molecule, the “Sample Concentration in plasma” value (single oral 10 mg/kg, 0.75 h, individual animals, acetate, 10 mg/kg) was 11.8 ng/mL and 15.9 ng/mL and 24.1 ng/mL, the “Sample Concentration in plasma” value (single oral 10 mg/kg, 1.5 h, individual animals, acetate, 10 mg/kg) was 20.5 ng/mL and 52.1 ng/mL and 44.6 ng/mL and the “Sample Concentration in plasma” value (single oral 10 mg/kg, 2.5 h, individual animals, acetate, 10 mg/kg) was 57.1 ng/mL and 57.2 ng/mL. The “Sample Concentration in plasma” value (single oral 10 mg/kg, 4 h, individual animals, acetate, 10 mg/kg) was 79.4 ng/mL and 89.4 ng/mL, the “Sample Concentration in plasma” value (single oral 10 mg/kg, 6 h, individual animals, acetate, 10 mg/kg) was 98.4 ng/mL and 88.8 ng/mL and the “Sample Concentration in plasma” value (single oral 10 mg/kg, 8 h, individual animals, LLOQ 2.50, acetate, 10 mg/kg) was 104 ng/mL and 106 ng/mL. The “Sample Concentration in plasma” value (single oral 10 mg/kg, 24 h, individual animals, LLOQ 2.50, acetate, 10 mg/kg) was 7.50 ng/mL and 10.2 ng/mL.
